{"source": "paper PMC10035370", "about": "“Targeting Tumor Angiogenesis with the Selective VEGFR-3 Inhibitor EVT801 in Combination with Cancer Immunotherapy” (Cancer Research Communications, 2022)", "key": {"NCI-H1703 cells": {"system": "NCI-H1703 cells", "assay": "NCI-H1703 viability (ATP reduction)", "assay_type": "cell-based", "settings": "Homo sapiens, in vitro", "protocol": "NCI-H1703 were seeded in 96-well plates coated with 0.3 % gelatin (5 x 10^3 cells per well) and were incubated in RPMI 0.1 % FCS with VEGF-C (300 ng/mL) or VEGF-D (300 ng/mL) in the absence or presence of increasing doses of EVT801. After 5 days, viable cells were quantified with the cell Titer-glo luminescent cell viability assay (Promega) as previously described (1)."}, "4T1 tumors [1]": {"system": "4T1 tumors", "assay": "4T1 mammary carcinoma mouse model, with anti-PD-1", "assay_type": "in vivo, mice", "protocol": "The 4T1 mammary carcinoma mouse models were used as reported previously ([26]). Briefly, 1 × 10^5 4T1 cells were implanted into mammary fat pads of BALB/c mice. […] Tumors were measured two to three times weekly with calipers. The tumor volume (V) was calculated using the formula V = 0.52 × a^2 × b (a: smallest tumor diameter; b: largest tumor diameter). The tumors, lungs, and axillary lymph nodes were removed at day 21 for treatment with anti-PD-1, and day 28 for treatment with anti-CTLA-4. The tumors and the lungs were embedded in paraffin for histology studies. […] The metastatic scoring was determined as follows: (0) no metastasis; ([1]) 1 to 20 metastases < 50 μm; ([2]) between 21 and 50 metastases < 50 μm; ([3]) 1 or more metastases > […]; ([4]) 1 or more metastases > […]."}, "4T1 tumors [2]": {"system": "4T1 tumors", "assay": "4T1 mammary carcinoma mouse model, with anti-CTLA-4", "assay_type": "in vivo, mice", "protocol": "The 4T1 mammary carcinoma mouse models were used as reported previously ([26]). Briefly, 1 × 10^5 4T1 cells were implanted into mammary fat pads of BALB/c mice. […] Tumors were measured two to three times weekly with calipers. The tumor volume (V) was calculated using the formula V = 0.52 × a^2 × b (a: smallest tumor diameter; b: largest tumor diameter). The tumors, lungs, and axillary lymph nodes were removed at day 21 for treatment with anti-PD-1, and day 28 for treatment with anti-CTLA-4. The tumors and the lungs were embedded in paraffin for histology studies. Intraperitoneal injection (10 mg/kg of antibody diluted at 1 mg/mL) was performed at day 6, day 11, and day 16 for treatment with anti-PD-1, and at day 6, day 11, day 16, and day 21 for treatment with anti-CTL-4 by using a 26G needle fitted to a plastic syringe in the right lower quarter of mice abdomen. The metastatic scoring was determined as follows: (0) no metastasis; ([1]) 1 to 20 metastases < 50 μm; ([2]) between 21 and 50 metastases < 50 μm; ([3]) 1 or more metastases > […]; ([4]) 1 or more metastases > […].\nWhole blood samples were treated twice with ACK lysing buffer (Thermo Fisher Scientific, A1049201) to lyse red blood cells. Cell suspension were incubated for 15 minutes on ice in blocking buffer (FACS buffer: PBS 1 X, 1% FBS, 5 mmol/L Ethylene Diamine Tetra acetic Acid (EDTA) containing 3% rat serum, 3% mouse serum, 1:660 FC blocking antibody). Cell suspension were stained with an antibody mix either for myeloid-derived suppressor cell (MDSC) staining [anti-CD45 PE-Vio770 (Miltenyi Biotec, 130-110-799), anti-CD11b APC (eBioscience, 17-0112-82), anti-Ly6C AF700 (BD, 561237), anti-Ly6G BV421 (BD, 562737), anti-F4/80 BV510 (BD, 743280), anti-IA/I-E (MHCII), PercpCy5.5 (BD, 562363), anti-CD124 PE (BioLegend, 144804) or anti-rat IgG2bPE (Ozyme, BLE400608) isotype control, and the green fluorescent reactive dye (Thermo Fisher Scientific, L34960)], or for T-cell staining [anti-CD45 PE-Vio770 (Miltenyi Biotec, 130-110-799), anti-Thy1 APC-Cy7 (BioLegend, 105328), anti-CD4 PercpVio-700 (Miltenyi Biotec, 130-109-497), anti-CD8 BV510 (BD, 563068), anti-CD69 BV421 (BD 562920) or anti-rat IgG1a-BV421 (BD, 562919), and the green fluorescent reactive dye (Thermo Fisher Scientific, L34960)]. After incubation for 30 minutes at 4°C in the dark, cells were washed and suspended in FACS buffer. A total of 50 μL of CountBright Absolute counting beads (Thermo Fisher Scientific, C36950) were added just before cell acquisition on a FACS Fortessa X20 (Becton Dickinson). Analysis was performed with the FlowJo software. For calculation of cell concentration, the following formula was used: Concentration of cells/μL = (number of cell events/number of bead events) × (assigned bead count of the lot/volume of analyzed sample). Monocytic MDSCs (M-MDSC) were characterized as MHC-II^neg/CD11b^+/Ly6C^+/Ly6G^neg, whereas polymorphonuclear MDSCs (PMN-MDSC) were characterized as MHC-II^neg/CD11b^+/Ly6C^neg/Ly6G^+, as described previously ([31]). Among those populations, CD124^+ cells were considered as the activated subpopulations ([32]).\nBlood was centrifuged at 8,000 rpm, for 5 minutes, at 4°C and the plasma was collected by harvesting the supernatant and stored at −80°C. Plasma samples were thawed at 4°C extemporaneously for MesoScale Discovery (MSD) analysis on a U-PLEX-4 Assay coated plate (U-PLEX Mouse KC, U-PLEX Mouse MIP-1α/CCL3, U-PLEX Mouse MIP-1β/CCL4, U-PLEX Mouse Rantes/CCL5 K15069L-1, Meso Scale Discovery). Analysis was performed following manufacturer's instructions."}, "Pharmacokinetics in rats": {"assay": "Pharmacokinetics in rats", "assay_type": "in vivo", "settings": "rat, plasma; Sprague-Dawley rats, 10 mg/kg; read-out: T1/2 in plasma (converted)", "protocol": "Plasma samples and tumor homogenates were mixed with the precipitant solution (acetonitrile containing internal standard). The supernatant (180 µL) was transferred in a 96-well plate and 5 µL were injected. EVT801 and its main metabolite were quantified by LC-MS/MS following standard conditions."}, "[3]": {"settings": "endpoint, 30 mg/kg twice per day"}}, "data": [{"compound": "CCn1c(N)c(-c2ncc[nH]2)c(=O)c2ccc(C#C[C@@](C)(O)COC)nc21", "note": "[EVT801]", "values": [{"measurement": "IC50", "setting": "NCI-H1703 cells", "value": 109, "unit": "nM"}, {"measurement": "intratumor infiltrated CD8+ cells", "setting": "4T1 tumors [1]; endpoint, not statistically significant", "value": "globally doubled"}, {"measurement": "T/C ratio, tumor volume", "setting": "4T1 tumors [1]; orthotopic, 2 weeks, EVT801 30 mg/kg twice per day and/or anti-PD-1 twice per week", "value": 43, "unit": "%"}, {"measurement": "reduction in circulation of each activated (CD124+) MDSC subpopulation (PMN-MDSCs, M-MDSCs) in the blood", "setting": "4T1 tumors [2]; 14 hours after the last dosing", "value": 2, "unit": "fold"}, {"measurement": "increase in number of circulating CD8+ T cells", "setting": "4T1 tumors [2]; endpoint", "value": 30, "unit": "%"}, {"measurement": "change in circulating CCL4 levels", "setting": "4T1 tumors [2]; [3]", "value": "−50", "unit": "%"}, {"measurement": "change in circulating CCL5 levels", "setting": "4T1 tumors [2]; [3]", "value": "−30", "unit": "%"}, {"measurement": "circulating CCL3 levels", "setting": "4T1 tumors [2]; [3]", "value": "unchanged"}, {"measurement": "T/C ratio, tumor growth", "setting": "4T1 tumors [2]; orthotopic, EVT801 30 mg/kg twice per day, anti-CTLA-4 twice per week, or both", "value": 53, "unit": "%"}, {"measurement": "half-life", "setting": "Pharmacokinetics in rats", "value": 2.4, "unit": "h"}]}]}
